For orientation: IC50 means the concentration at which inhibition is half-maximal.

Each structure is given as a SMILES string.

recombinant human MGAT2, sequence (Q3SYC2 whole entry): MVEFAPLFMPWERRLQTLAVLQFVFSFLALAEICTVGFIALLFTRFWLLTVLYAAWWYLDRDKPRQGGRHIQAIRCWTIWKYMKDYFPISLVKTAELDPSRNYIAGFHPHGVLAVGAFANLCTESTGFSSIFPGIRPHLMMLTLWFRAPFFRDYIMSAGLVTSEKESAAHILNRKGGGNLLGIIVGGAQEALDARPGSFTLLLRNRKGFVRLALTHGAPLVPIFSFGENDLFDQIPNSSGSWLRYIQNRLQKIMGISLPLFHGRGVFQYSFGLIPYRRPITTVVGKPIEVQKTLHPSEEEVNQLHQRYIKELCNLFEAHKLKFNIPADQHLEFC

This assay deals with recombinant human MGAT2 (Homo sapiens (Human), UniProt Q3SYC2). Put plainly: Measurement of human MGAT2 inhibitory activity. The format is biochemical. As to conditions: recombinant human MGAT2 membrane fraction (Sf-9); 2-Oleoylglycerol and Oleoyl-CoA substrates; 1 hour at room temperature; Diolein detected by RapidFire Q-TOF MS. An excerpt:
A full-length human MGAT2 gene to which a Flag-tag had been added at the N-terminal was inserted into pFastBac (from Invitrogen). A recombinant baculovirus was produced in accordance with the protocol for a Bac-to-Bac baculovirus expression system (produced by Invitrogen), and Sf-9 cells were infected therewith. The cells were collected and sonicated, and then the membrane fraction was collected through centrifugation.
Solutions of the compounds of the present invention in DMSO were each aliquoted into 0.2-μL portions in a 384-well polystyrene microplate produced by Corning Incorporated, and 5 μL of an enzyme solution prepared with an assay buffer (100 mmol/L phosphate buffer (pH 7.4) containing 2 mmol/L DTT) and 5 μL of a substrate solution (100 mmol/L phosphate buffer (pH 7.4), 30 μmol/L 2-Oleoylglycerol, 10 μmol/L Oleoyl-CoA) were added thereto, and the resultant was stirred and centrifuged, and incubated in a moist chamber at room temperature for 1 hour. […] Diolein as a reaction product (P) of 2-Oleoylglycerol as the substrate and an ammonium adduct ion of the IS were detected, and the peak intensity ratio, P/IS, was calculated from the peak heights to evaluate the inhibitory activity. […] The inhibitory activity was calculated from the formula below with TIBCO Spotfire (produced by TIBCO Software Inc.): Inhibitory activity (%)=[1−{Sample−Control(−)}/{Control(+)−Control(−))}]*100 where Sample indicates a peak intensity ratio: P/IS, when the compound of the present invention was added.
On to `COc1ccc(C2=C(CNC(=O)C(C)(C)C#N)C(=O)N[C@@](c3ccc(OCCCC(F)(F)F)cc3)(C(F)(F)F)C2)nc1` [Compound I-38], for which the IC50 worked out at 17 nM.
As for `CS(=O)(=O)CC(=O)NCC1=C(c2ccc(OC(F)F)cn2)C[C@](c2ccc(OCCCC(F)(F)F)cc2)(C(F)(F)F)NC1=O` [Compound I-57], the figure is 0.62 nM.
The value for `CC(=O)NCC1=C(c2ccc(CO)cn2)C[C@](c2ccc(OCCCC(F)(F)F)cc2)(C(F)(F)F)NC1=O` [Compound I-9] was 29 nM.
In the case of `CS(=O)(=O)CC(=O)NCC1=C(c2ccc(Br)cn2)C[C@](c2ccc(OCCCC(F)(F)F)cc2)(C(F)(F)F)NC1=O` [Compound I-70], the IC50 was 5.3 nM.
The value for `CC(=O)NCC1=C(c2ccc(C(C)(C)O)cn2)C[C@](c2ccc(OCCCC(F)(F)F)cc2)(C(F)(F)F)NC1=O` [Compound I-42] was 10 nM.
With `CC(=O)NCC1=C(c2ccc(OC(F)F)cn2)C[C@](c2ccc(OCCCC(F)(F)F)cc2)(C(F)(F)F)NC1=O` [Compound I-56], the IC50 amounted to 17 nM.
As for `CC(=O)NCC1=C(c2ncc(C3CC3)s2)C[C@](c2ccc(OCCCC(F)(F)F)cc2)(C(F)(F)F)NC1=O` [Compound I-68], the figure is 440 nM; as for `COc1ccc(C2=C(CNC(=O)C3COC3)C(=O)N[C@@](c3ccc(OCCCC(F)(F)F)cc3)(C(F)(F)F)C2)nc1` [Compound I-36], 53 nM.
The value for `Cn1ccc(-c2ccc([C@]3(C(F)(F)F)CC(c4ccc(OC(F)F)cn4)=C(CNC(=O)CS(C)(=O)=O)C(=O)N3)cc2)cc1=O` [Compound I-100] was 370 nM; that for `COc1ccc(C2=C(CNC(=O)CC(C)(C)C)C(=O)N[C@@](c3ccc(OCCCC(F)(F)F)cc3)(C(F)(F)F)C2)nc1` [Compound I-16] was 52 nM.
The value for `CS(=O)(=O)CC(=O)NCC1=C(c2ccc(OC(F)F)cn2)C[C@](c2ccc(C(F)(F)F)cc2)(C(F)(F)F)NC1=O` [Compound I-108] was 46 nM; that for `CS(=O)(=O)CC(=O)NCC1=C(c2ccc(C(F)F)cn2)C[C@](c2ccc(OCC(F)(F)F)cc2)(C(F)(F)F)NC1=O` [Compound I-91] was 6.8 nM; that for `O=C(CC(F)(F)F)NCC1=C(c2ccc(C(F)F)cn2)C[C@](c2ccc(OCCCC(F)(F)F)cc2)(C(F)(F)F)NC1=O` [Compound I-112] was 3.8 nM.
As to `CC(=O)NCC1=C(c2ccc(C)cn2)C[C@](c2ccc(OCCCC(F)(F)F)cc2)(C(F)(F)F)NC1=O` [Compound I-4], the IC50 amounted to 32 nM.
As for `COc1ccc(C2=C(CNC(=O)C3(C#N)CC3)C(=O)N[C@@](c3ccc(OCCCC(F)(F)F)cc3)(C(F)(F)F)C2)nc1` [Compound I-39], the figure is 91 nM.
The value for `O=C(CO)NCC1=C(c2ccc(OC(F)F)cn2)C[C@](c2ccc(OCCCC(F)(F)F)cc2)(C(F)(F)F)NC1=O` [Compound I-62] was 59 nM.
The value for `COc1ccc(C2=C(CNS(C)(=O)=O)C(=O)N[C@@](c3ccc(OCCCC(F)(F)F)cc3)(C(F)(F)F)C2)nc1` [Compound I-18] was 330 nM.
For `CS(=O)(=O)CC(=O)NCC1=C(c2ccc(OC(F)F)cn2)C[C@](c2ccc(OCC(F)F)cc2)(C(F)(F)F)NC1=O` [Compound I-105], the IC50 came out at 9.2 nM.
As for `CC(C)c1ccc(C2=C(CNC(=O)CS(C)(=O)=O)C(=O)N[C@@](c3ccc(OCCCC(F)(F)F)cc3)(C(F)(F)F)C2)nc1` [Compound I-43], the figure is under 1 nM.
The value for `CC(=O)NCC1=C(c2ccc(Br)cn2)C[C@](c2ccc(OCCCC(F)(F)F)cc2)(C(F)(F)F)NC1=O` [Compound I-49] was 140 nM.
As to `COc1ccc(C2=C(CNC(=O)CC(F)(F)F)C(=O)N[C@@](c3ccc(OCCCC(F)(F)F)cc3)(C(F)(F)F)C2)nc1` [Compound I-13], the IC50 amounted to 3.3 nM.
The value for `COc1ccc(C2=C(CNS(=O)(=O)C3CCOCC3)C(=O)N[C@@](c3ccc(OCCCC(F)(F)F)cc3)(C(F)(F)F)C2)nc1` [Compound I-22] was 200 nM.
Consider `CS(=O)(=O)CC(=O)NCC1=C(c2ccc(C(F)F)cn2)CC(c2cnn(CCCC(F)(F)F)c2)(C(F)(F)F)NC1=O` (racemic) [Compound I-110], for which the IC50 came to 91 nM.
The value for `CS(=O)(=O)C1(C(=O)NCC2=C(c3ccc(C(F)F)cn3)C[C@](c3ccc(OCCCC(F)(F)F)cc3)(C(F)(F)F)NC2=O)CC1` [Compound I-81] was 140 nM; that for `COc1ccc(C2=C(CNC(=O)c3ccno3)C(=O)N[C@@](c3ccc(OCCCC(F)(F)F)cc3)(C(F)(F)F)C2)nc1` [Compound I-17] was 7.6 nM; that for `Cc1ccc(C2=C(CNS(=O)(=O)CC#N)C(=O)N[C@@](c3ccc(OCCCC(F)(F)F)cc3)(C(F)(F)F)C2)nc1` [Compound I-28] was 100 nM.
Regarding `CS(=O)(=O)CC(=O)NCC1=C(c2ccc(OC(F)F)cn2)C[C@](c2ccc(C3CC3)cc2)(C(F)(F)F)NC1=O` [Compound I-95], the IC50 worked out at 17 nM.
The value for `CC(C)(O)c1ccc(C2=C(CNC(=O)CS(C)(=O)=O)C(=O)N[C@@](c3ccc(OCCCC(F)(F)F)cc3)(C(F)(F)F)C2)nc1` [Compound I-47] was 0.73 nM.
The value for `COc1ccc(C2=C(CNC(=O)C3CCC3)C(=O)N[C@@](c3ccc(OCCCC(F)(F)F)cc3)(C(F)(F)F)C2)nc1` [Compound I-15] was 10 nM; that for `CC1(C(=O)NCC2=C(c3ccc(C(F)F)cn3)C[C@](c3ccc(OCCCC(F)(F)F)cc3)(C(F)(F)F)NC2=O)CNC1` [Compound I-66] was 410 nM; that for `CS(=O)(=O)CC(=O)NCC1=C(c2ccc(OC(F)F)cn2)C[C@](c2ccc(OCCCC(F)(F)F)cn2)(C(F)(F)F)NC1=O` [Compound I-103] was 6.6 nM.
With `CS(=O)(=O)CC(=O)NCC1=C(c2ccc(C(F)F)cn2)CC(c2ccc(Br)cc2F)(C(F)(F)F)NC1=O` (stereo not shown) [Compound I-111], the IC50 came to 33 nM.
Consider `CC(C)c1ccc(C2=C(CNC(=O)CO)C(=O)N[C@@](c3ccc(OCCCC(F)(F)F)cc3)(C(F)(F)F)C2)nc1` [Compound I-60], for which the IC50 amounted to 27 nM.
As for `COc1ccc(C2=C(CNS(=O)(=O)CC(F)(F)F)C(=O)N[C@@](c3ccc(OCCCC(F)(F)F)cc3)(C(F)(F)F)C2)nc1` [Compound I-19], the figure is 240 nM; as for `CC(C)(C#N)C(=O)NCC1=C(c2ccc(C(C)(C)O)cn2)C[C@](c2ccc(OCCCC(F)(F)F)cc2)(C(F)(F)F)NC1=O` [Compound I-52], 3.1 nM; as for `CS(=O)(=O)CC(=O)NCC1=C(c2ccc(OC(F)F)cn2)C[C@](c2ccc(OCC(F)(F)F)cc2)(C(F)(F)F)NC1=O` [Compound I-114], 4.1 nM.
As for `CC(C)c1ccc(C2=C(CNC(=O)C(C)(C)C#N)C(=O)N[C@@](c3ccc(OCCCC(F)(F)F)cc3)(C(F)(F)F)C2)nc1` [Compound I-45], the figure is 4.4 nM; as for `CC(=O)NCC1=C(c2ccc(C(F)F)cn2)C[C@](c2ccc(OCCCC(F)(F)F)cc2)(C(F)(F)F)NC1=O` [Compound I-58], 34 nM; as for `CS(=O)(=O)CC(=O)NCC1=C(c2ccc(C(F)F)cn2)C[C@](c2ccc(CN3CCOCC3)cc2)(C(F)(F)F)NC1=O` [Compound I-97], 39 nM.
`CS(=O)(=O)CC(=O)NCC1=C(c2ccc(OC(F)F)cn2)C[C@](c2ccc(C3=CCOCC3)cc2)(C(F)(F)F)NC1=O` [Compound I-101]: the IC50 came to 42 nM.

Source of the values: US10335401B2, “Non-aromatic heterocyclic derivative having MGAT2 inhibitory activity” (Shionogi & Co., Ltd., priority 2015, dated 2019).
